The supplement of paper PMC10307832

Tests used:
Experiment in all cases: relative viability (nuclei count vs DMSO), 5 days (fraction); higher = more cells survive
NCI-H1755 = test system: NCI-H1755
Outline: (§1)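 Values are medians from duplicate plates. Each reflects relative viability, defined as the nuclei count of treated wells over that of vehicle wells. Lung cancer cell lines in 1536-well plates were pin-tool dosed one day after seeding with one drug alone or with a fixed anchor-drug dose plus five library-drug doses (not always all listed) in √10 steps, then fixed, stained and imaged at 4× after 5 days.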

NCI-H1651 = test system: NCI-H1651
Outline: as §1

LCLC-103H = test system: LCLC-103H
Outline: as §1

EPLC-272H = test system: EPLC-272H
Outline: as §1

NCI-H1355 = test system: NCI-H1355
Outline: as §1

COR-L 105 = test system: COR-L 105
Outline: as §1

HCC-44 = test system: HCC-44
Outline: as §1

NCI-H1975 = test system: NCI-H1975
Outline: as §1

SW 1573 = test system: SW 1573
Outline: as §1

NCI-H2228 = test system: NCI-H2228
Outline: as §1

PC-3 [JPC-3] = test system: PC-3 [JPC-3]
Outline: as §1

HARA = test system: HARA
Outline: as §1

NCI-H596 = test system: NCI-H596
Outline: as §1

NCI-H2170 = test system: NCI-H2170
Outline: as §1

NCI-H838 = test system: NCI-H838
Outline: as §1

HCC-366 = test system: HCC-366
Outline: as §1

HCC-78 = test system: HCC-78
Outline: as §1

HCC-827 = test system: HCC-827
Outline: as §1

NCI-H1993 = test system: NCI-H1993
Outline: as §1

NCI-H1793 = test system: NCI-H1793
Outline: as §1

NCI-H520 = test system: NCI-H520
Outline: as §1

LOU-NH91 = test system: LOU-NH91
Outline: as §1

SK-MES-1 = test system: SK-MES-1
Outline: as §1

UMC-11 = test system: UMC-11
Outline: as §1

RERF-LC-KJ = test system: RERF-LC-KJ
Outline: as §1

Nc1cccc2c1CN(C1CCC(=O)NC1=O)C2=O (configuration not stated) [Lenalidomide] + O=C(c1cc(Cc2n[nH]c(=O)c3ccccc23)ccc1F)N1CCN(C(=O)C2CC2)CC1 [Olaparib] (partner 8 µM)
relative viability (NCI-H1755; first compound 0.253 µM): 0.86
relative viability (NCI-H1755; first compound 0.8 µM): 0.861
relative viability (NCI-H1755; first compound 2.53 µM): 0.899
relative viability (NCI-H1755; first compound 8 µM): 0.777
relative viability (NCI-H1651; first compound 0.253 µM): 0.153
relative viability (NCI-H1651; first compound 0.8 µM): 0.169
relative viability (NCI-H1651; first compound 2.53 µM): 0.219
relative viability (NCI-H1651; first compound 8 µM): 0.194
relative viability (LCLC-103H; first compound 0.253 µM): 0.718
relative viability (LCLC-103H; first compound 0.8 µM): 0.667
relative viability (LCLC-103H; first compound 2.53 µM): 0.76
relative viability (LCLC-103H; first compound 8 µM): 0.741
relative viability (EPLC-272H; first compound 0.253 µM): 0.777
relative viability (EPLC-272H; first compound 2.53 µM): 0.613
relative viability (EPLC-272H; first compound 8 µM): 0.657
relative viability (NCI-H1355; first compound 0.253 µM): 0.756
relative viability (NCI-H1355; first compound 0.8 µM): 0.5
relative viability (NCI-H1355; first compound 2.53 µM): 0.857
relative viability (NCI-H1355; first compound 8 µM): 0.709
relative viability (COR-L 105; first compound 0.253 µM): 0.737
relative viability (COR-L 105; first compound 0.8 µM): 0.712
relative viability (COR-L 105; first compound 2.53 µM): 0.748
relative viability (COR-L 105; first compound 8 µM): 0.774
relative viability (HCC-44; first compound 0.253 µM): 0.981
relative viability (HCC-44; first compound 0.8 µM): 0.873
relative viability (HCC-44; first compound 2.53 µM): 1.02
relative viability (HCC-44; first compound 8 µM): 1.05
relative viability (NCI-H1975; first compound 0.253 µM): 0.912
relative viability (NCI-H1975; first compound 0.8 µM): 0.694
relative viability (NCI-H1975; first compound 2.53 µM): 0.876
relative viability (NCI-H1975; first compound 8 µM): 0.995
relative viability (SW 1573; first compound 0.253 µM): 0.492
relative viability (SW 1573; first compound 0.8 µM): 0.545
relative viability (SW 1573; first compound 2.53 µM): 0.468
relative viability (SW 1573; first compound 8 µM): 0.606
relative viability (NCI-H2228; first compound 0.253 µM): 0.544
relative viability (NCI-H2228; first compound 0.8 µM): 0.502
relative viability (NCI-H2228; first compound 2.53 µM): 0.753
relative viability (NCI-H2228; first compound 8 µM): 0.583
relative viability (PC-3 [JPC-3]; first compound 0.253 µM): 1.12
relative viability (PC-3 [JPC-3]; first compound 0.8 µM): 1.1
relative viability (PC-3 [JPC-3]; first compound 2.53 µM): 1.32
relative viability (PC-3 [JPC-3]; first compound 8 µM): 1.38
relative viability (HARA; first compound 0.253 µM): 0.925
relative viability (HARA; first compound 2.53 µM): 0.804
relative viability (HARA; first compound 8 µM): 1.01
relative viability (NCI-H596; first compound 0.253 µM): 0.758
relative viability (NCI-H596; first compound 0.8 µM): 0.705
relative viability (NCI-H596; first compound 2.53 µM): 0.77
relative viability (NCI-H596; first compound 8 µM): 0.77
relative viability (NCI-H2170; first compound 0.253 µM): 0.57
relative viability (NCI-H2170; first compound 0.8 µM): 0.611
relative viability (NCI-H2170; first compound 2.53 µM): 0.67
relative viability (NCI-H2170; first compound 8 µM): 0.553
relative viability (NCI-H838; first compound 0.253 µM): 0.75
relative viability (NCI-H838; first compound 0.8 µM): 0.774
relative viability (NCI-H838; first compound 2.53 µM): 0.781
relative viability (NCI-H838; first compound 8 µM): 0.79
relative viability (HCC-366; first compound 0.253 µM): 0.328
relative viability (HCC-366; first compound 0.8 µM): 0.309
relative viability (HCC-366; first compound 2.53 µM): 0.373
relative viability (HCC-366; first compound 8 µM): 0.394
relative viability (HCC-78; first compound 0.253 µM): 0.861
relative viability (HCC-78; first compound 0.8 µM): 0.858
relative viability (HCC-78; first compound 2.53 µM): 0.87
relative viability (HCC-78; first compound 8 µM): 0.814
relative viability (HCC-827; first compound 0.253 µM): 0.633
relative viability (HCC-827; first compound 0.8 µM): 0.57
relative viability (HCC-827; first compound 2.53 µM): 0.668
relative viability (HCC-827; first compound 8 µM): 0.612
relative viability (NCI-H1993; first compound 0.253 µM): 0.897
relative viability (NCI-H1993; first compound 0.8 µM): 1.42
relative viability (NCI-H1993; first compound 2.53 µM): 1.09
relative viability (NCI-H1993; first compound 8 µM): 0.889
relative viability (NCI-H1793; first compound 0.253 µM): 0.863
relative viability (NCI-H1793; first compound 2.53 µM): 1.07
relative viability (NCI-H1793; first compound 8 µM): 0.539
relative viability (NCI-H520; first compound 0.253 µM): 0.368
relative viability (NCI-H520; first compound 0.8 µM): 0.359
relative viability (NCI-H520; first compound 2.53 µM): 0.375
relative viability (NCI-H520; first compound 8 µM): 0.35
relative viability (LOU-NH91; first compound 0.253 µM): 0.934
relative viability (LOU-NH91; first compound 0.8 µM): 0.948
relative viability (LOU-NH91; first compound 2.53 µM): 0.906
relative viability (LOU-NH91; first compound 8 µM): 0.898
relative viability (SK-MES-1; first compound 0.253 µM): 0.717
relative viability (SK-MES-1; first compound 0.8 µM): 0.691
relative viability (SK-MES-1; first compound 2.53 µM): 0.715
relative viability (SK-MES-1; first compound 8 µM): 0.806
relative viability (UMC-11; first compound 0.253 µM): 0.398
relative viability (UMC-11; first compound 0.8 µM): 0.695
relative viability (UMC-11; first compound 2.53 µM): 0.416
relative viability (UMC-11; first compound 8 µM): 0.405
relative viability (RERF-LC-KJ; first compound 0.253 µM): 0.812
relative viability (RERF-LC-KJ; first compound 0.8 µM): 0.704
relative viability (RERF-LC-KJ; first compound 2.53 µM): 0.884
relative viability (RERF-LC-KJ; first compound 8 µM): 1.05
